We go through five compounds from patent US10759809B2 (priority 2017, dated 2020).

The term ED50 denotes the dose that gives a 50% effect, or the effect in half of the subjects. Read a high ED50 as weaker potency.

The subject of one series is Kunming mice. Nature of the series: animal or person. In kind it is in vivo. To be noted: Mus musculus, po, 1 h.
The test system of the next series is SD rat. Put plainly: animal or person. Format: in vivo. To be noted: po, 1 h.
The subject of another series is SD rats. To be noted: male, rat, in vivo.
The next series has as its system Mice. To be noted: both, mouse, in vivo.

Structures can show the parent of a compound that is named as a salt. Where only a bound is given, the exact number is not on record here.

As for `[2H]C([2H])(C1CC1)N1CC[C@]23c4c5ccc(O)c4O[C@H]2[C@@]2(OC)CC[C@@]3(C[C@@H]2[C@](C)(O)C(C)(C)C)[C@H]1C5` [I1•HCl, (2S)-2-[(5R, 6R, 7R, 14S)—N-(cyclopropyl-dideuteromethyl)-4,5-epoxy-6, 14-ethano-3-hydroxy-6-methoxymorphinan-7-yl]-3,3-dimethylbutan-2-ol], the values for the 50% effective dose (ED50) in the series with Kunming mice and with SD rat were 6.54 ± 2.96 mg/kg and 19 ± 7.29 mg/kg, respectively. Further, in the series on SD rats, the “Residence time in drug-side box (Mean ± S, s)” value was 149.19 ± 36.88 s. Besides, in the series with Mice, the “Inhibition of activated carbon excretion” value stood at 36.31 ± 2.78%.

`[2H]c1c([2H])c2c3c(c1O)O[C@H]1[C@@]4(OC)CC[C@@]5(C[C@@H]4[C@](C)(O)C(C)(C)C)[C@@H](C2)N(CC2CC2)CC[C@]315` [I5•HCl, (2S)-2-[(5R, 6R, 7R, 14S)-1,2-dideutero-N-cyclopropylmethyl-4,5-epoxy-6,14-ethano-3-hydroxy-6-methoxymorphinan-7-yl]-3,3-dimethylbutan-2-ol]: the median effective dose (ED50) stood at 8.02 ± 11.3 mg/kg with Kunming mice and 31.1 ± 10.9 mg/kg with SD rat.

Regarding `[2H]c1c([2H])c2c3c(c1O)O[C@H]1[C@@]4(OC)CC[C@@]5(C[C@@H]4[C@](C)(O)C(C)(C)C)[C@@H](C2)N(C([2H])([2H])C2CC2)CC[C@]315` [I6•HCl, (2S)-2-[(5R, 6R, 7R, 14S)-1,2-dideutero-N-(cyclopropyl-dideuteromethyl)-4,5-epoxy-6,14-ethano-3-hydroxy-6-methoxymorphinan-7-yl]-3,3-dimethylbutan-2-ol], the ED50 in the series with Kunming mice is 5.83 ± 2.23 mg/kg; with SD rat, 18 ± 8.56 mg/kg.

Regarding `[2H]C1C([2H])[C@]23C[C@H]([C@](C)(O)C(C)(C)C)[C@@]1(OC)C1Oc4c(O)ccc5c4[C@@]12CCN(CC1CC1)[C@@H]3C5` (stereo partly drawn) [I7•HCl, (2S)-2-[(5R, 6R, 7R, 14S)—N-(cyclopropyl-methyl)-4,5-epoxy-6,14-dideuteroethano-3-hydroxy-6-methoxymorphinan-7-yl]-3,3-dimethylbutan-2-ol], the values for the median effective dose (ED50) in the series on Kunming mice and in the series on SD rat were 12 ± 11.7 mg/kg and 38 ± 19.7 mg/kg, respectively.

Consider `CO[C@]12CC[C@@]3(C[C@@H]1[C@](C)(O)C(C)(C)C)[C@H]1Cc4ccc(O)c5c4[C@@]3(CCN1CC1CC1)[C@H]2O5` [buprenorphine•HCl, (2S)-2-[(5R, 6R, 7R, 14S)—N-cyclopropylmethyl-4,5-epoxy-6, 14-ethano-3-hydroxy-6-methoxymorphinan-7-yl]-3,3-di methylbutan-2-ol, reference compound], for which the figures for the ED50 with Kunming mice and in the series with SD rat were 11.8 ± 11.7 mg/kg and above 50 mg/kg, respectively. In addition, in the series with SD rats, the “Residence time in drug-side box (Mean ± S, s)” value came to 277.56 ± 164.99 s. For the same compound, the “Inhibition of activated carbon excretion” value in the series with Mice came to 63.87 ± 2.16%.
